The source made the active and inactive calls. The rule behind the calls is not given here.
Experiments:
[1] = target: T1, Phosphatidylinositol 4,5-bisphosphate 3-kinase catalytic subunit delta isoform (Homo sapiens) (UniProt O00329); assay: Inhibition of PI3Kdelta in human basophils assessed as reduction in IgE-induced degranulation by measuring CD63 expression level at 100 uM by flow cast assay relative to control; design: scale not given: the % may be the effect or the level left
T1 sequence (whole entry): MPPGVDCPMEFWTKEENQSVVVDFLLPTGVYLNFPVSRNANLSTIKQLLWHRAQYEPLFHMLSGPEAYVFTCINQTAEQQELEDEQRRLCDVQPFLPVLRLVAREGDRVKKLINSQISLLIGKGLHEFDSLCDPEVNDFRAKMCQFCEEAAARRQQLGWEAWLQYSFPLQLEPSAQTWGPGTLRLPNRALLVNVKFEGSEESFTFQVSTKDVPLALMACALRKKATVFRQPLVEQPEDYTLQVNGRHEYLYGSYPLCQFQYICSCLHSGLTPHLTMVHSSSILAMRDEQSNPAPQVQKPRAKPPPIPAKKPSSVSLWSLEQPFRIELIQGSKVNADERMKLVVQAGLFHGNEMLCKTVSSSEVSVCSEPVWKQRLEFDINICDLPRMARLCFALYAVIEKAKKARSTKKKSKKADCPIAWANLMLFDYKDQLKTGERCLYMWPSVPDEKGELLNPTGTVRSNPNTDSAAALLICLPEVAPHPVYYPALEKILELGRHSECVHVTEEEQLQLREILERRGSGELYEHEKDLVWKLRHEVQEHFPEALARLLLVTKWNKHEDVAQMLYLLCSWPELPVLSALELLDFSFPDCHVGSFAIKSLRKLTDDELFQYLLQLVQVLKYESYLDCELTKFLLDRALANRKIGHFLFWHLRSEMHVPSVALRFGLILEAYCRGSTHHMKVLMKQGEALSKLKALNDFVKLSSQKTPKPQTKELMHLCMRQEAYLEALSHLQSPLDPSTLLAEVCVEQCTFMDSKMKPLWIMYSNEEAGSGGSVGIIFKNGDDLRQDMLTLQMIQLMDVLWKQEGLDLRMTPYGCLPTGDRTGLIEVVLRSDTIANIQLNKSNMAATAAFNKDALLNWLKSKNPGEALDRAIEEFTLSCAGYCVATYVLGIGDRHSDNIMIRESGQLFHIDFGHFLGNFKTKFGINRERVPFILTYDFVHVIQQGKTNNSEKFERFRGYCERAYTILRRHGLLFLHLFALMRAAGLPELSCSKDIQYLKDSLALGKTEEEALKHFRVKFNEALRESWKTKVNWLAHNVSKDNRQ

[2] = target: T1, Phosphatidylinositol 4,5-bisphosphate 3-kinase catalytic subunit delta isoform (Homo sapiens); assay: Inhibition of PI3Kdelta in human basophils assessed as reduction in IgE-induced degranulation by measuring CD203c expression level at 100 uM by fluorescence assay relative to control; design: scale not given: the % may be the effect or the level left
Mus musculus [3] = assay: Protection against DNFB-induced atopic dermatitis in mouse assessed as reduction in ear thickness at 90 mg/kg, ip measured up to 3 days post DNFB treatment; type: functional, organism-based
Mus musculus [4] = assay: Anti-inflammatory activity in mouse model of ovalbumin-induced asthma assessed as decrease in total leukocytic infilterate in BAL administered ip daily; type: functional, organism-based
Mus musculus [5] = assay: Toxicity in mouse up to 90 mg/kg, ip or iv administered 3 to 5 times/week up to 4 weeks; type: organism-based; settings: in vivo, 672 h
Mus musculus [6] = assay: Anti-inflammatory activity in mouse model of ovalbumin-induced asthma assessed as decrease in total leukocytic infilterate in lungs administered ip daily; type: functional, organism-based
[7] = target: Phosphatidylinositol 4,5-bisphosphate 3-kinase catalytic subunit gamma isoform (Homo sapiens, UniProt P48736); assay: Inhibition of PI3KCgamma (unknown origin)
[8] = target: PI3-kinase p110-delta/p85-alpha (Homo sapiens, UniProt O00329); assay: Inhibition of PI3KCdelta/PIK3R1 (unknown origin); type: protein-complex assay
[9] = target: PI3-kinase p110-alpha/p85-alpha (Homo sapiens, UniProt P42336); assay: Inhibition of PI3KCalpha/PIK3R1 (unknown origin); type: protein-complex assay
[10] = target: T1, Phosphatidylinositol 4,5-bisphosphate 3-kinase catalytic subunit delta isoform (Homo sapiens); assay: Inhibition of PI3Kdelta in human basophils assessed as reduction in IgE-induced degranulation by decrease in measuring CD203c expression level by fluorescence assay
Mus musculus [11] = assay: Anti-inflammatory activity in mouse model of ovalbumin-induced asthma assessed as decrease in eosinophilic infilteration administered ip daily; type: functional, organism-based
[12] = target: T1, Phosphatidylinositol 4,5-bisphosphate 3-kinase catalytic subunit delta isoform (Homo sapiens); assay: Inhibition of PI3Kdelta in human basophils assessed as reduction in IgE-induced degranulation by measuring decrease in CD63 expression level by flow cast assay
Mus musculus [13] = assay: Anti-inflammatory activity in mouse model of ovalbumin-induced asthma assessed as decrease in eosinophilic infilteration at 90 mg/kg aerosolized daily; type: functional, organism-based
Mus musculus [14] = assay: Anti-inflammatory activity in mouse model of ovalbumin-induced asthma assessed as decrease in neutrophilic infilteration at 90 mg/kg aerosolized daily; type: functional, organism-based
Mus musculus [15] = assay: Anti-asthmatic activity in mouse model of ovalbumin-induced asthma assessed as decrease in methacholine-induced lung resistance at 90 mg/kg, ip daily by plethysmographic method; type: functional, organism-based
PI3K p110 beta/p85 alpha = PI3K p110 beta/p85 alpha (Homo sapiens, UniProt P42338); assay: Inhibition of PI3KCbeta/PIK3R1 (unknown origin); type: protein-complex assay
Mus musculus [16] = assay: Anti-inflammatory activity in mouse model of ovalbumin-induced asthma assessed as decrease in total leukocytic infilterate in BAL at 90 mg/kg aerosolized daily; type: functional, organism-based
Mus musculus [17] = assay: Anti-inflammatory activity in mouse model of ovalbumin-induced asthma assessed as decrease in macrophage infilteration at 90 mg/kg aerosolized daily; type: functional, organism-based
Mus musculus [18] = assay: Anti-asthmatic activity in mouse model of ovalbumin-induced asthma assessed as decrease in methacholine-induced lung resistance at 90 mg/kg aerosolized daily by plethysmographic method; type: functional, organism-based
Mus musculus [19] = assay: Anti-asthmatic activity in mouse model of ovalbumin-induced asthma assessed as decrease in methacholine-induced lung resistance at 10 mg/kg, ip daily by plethysmographic method; type: functional, organism-based
Mus musculus [20] = assay: Protection against DNFB-induced atopic dermatitis in mouse assessed as reduction in ear thickness administered topically measured up to 4 days post DNFB treatment; type: functional, organism-based
Mus musculus [21] = assay: Anti-asthmatic activity in mouse model of ovalbumin-induced asthma assessed as decrease in methacholine-induced lung resistance at 10 mg/kg aerosolized daily by plethysmographic method; type: functional, organism-based
Mus musculus [22] = assay: Anti-inflammatory activity in mouse model of ovalbumin-induced asthma assessed as decrease in total leukocytic infilterate in BAL at 10 mg/kg aerosolized daily; type: functional, organism-based

Phosphatidylinositol 4,5-bisphosphate 3-kinase catalytic subunit gamma isoform, sequence (P48736 whole entry, canonical isoform): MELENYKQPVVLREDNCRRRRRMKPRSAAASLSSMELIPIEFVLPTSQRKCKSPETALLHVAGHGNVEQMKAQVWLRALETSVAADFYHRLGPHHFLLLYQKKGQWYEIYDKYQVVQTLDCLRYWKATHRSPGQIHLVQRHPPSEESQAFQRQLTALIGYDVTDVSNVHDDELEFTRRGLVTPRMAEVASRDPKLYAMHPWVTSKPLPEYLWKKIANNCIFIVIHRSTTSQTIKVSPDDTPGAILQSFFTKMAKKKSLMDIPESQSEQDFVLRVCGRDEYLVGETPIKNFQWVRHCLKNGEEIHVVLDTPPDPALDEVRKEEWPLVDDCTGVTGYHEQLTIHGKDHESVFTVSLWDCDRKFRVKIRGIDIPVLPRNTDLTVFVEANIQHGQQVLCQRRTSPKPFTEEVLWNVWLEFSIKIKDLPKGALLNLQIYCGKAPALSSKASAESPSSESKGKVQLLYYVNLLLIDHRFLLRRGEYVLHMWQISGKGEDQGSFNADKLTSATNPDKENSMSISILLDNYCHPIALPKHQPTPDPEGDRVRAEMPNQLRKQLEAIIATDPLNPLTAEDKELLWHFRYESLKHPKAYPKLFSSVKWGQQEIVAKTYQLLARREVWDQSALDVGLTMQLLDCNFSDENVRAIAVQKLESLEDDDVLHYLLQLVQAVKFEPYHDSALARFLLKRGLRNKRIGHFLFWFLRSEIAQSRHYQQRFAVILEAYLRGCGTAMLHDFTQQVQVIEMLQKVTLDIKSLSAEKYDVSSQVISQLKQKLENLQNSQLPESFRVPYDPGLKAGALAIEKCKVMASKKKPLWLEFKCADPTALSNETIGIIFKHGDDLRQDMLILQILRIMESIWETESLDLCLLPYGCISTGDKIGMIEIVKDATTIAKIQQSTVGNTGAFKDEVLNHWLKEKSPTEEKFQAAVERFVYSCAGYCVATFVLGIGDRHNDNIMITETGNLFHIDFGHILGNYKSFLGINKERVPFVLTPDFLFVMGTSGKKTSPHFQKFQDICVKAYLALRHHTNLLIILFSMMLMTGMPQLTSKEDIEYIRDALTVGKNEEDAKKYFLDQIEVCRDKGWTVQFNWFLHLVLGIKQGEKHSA
PI3-kinase p110-alpha/p85-alpha, sequence (P27986 whole entry, canonical isoform): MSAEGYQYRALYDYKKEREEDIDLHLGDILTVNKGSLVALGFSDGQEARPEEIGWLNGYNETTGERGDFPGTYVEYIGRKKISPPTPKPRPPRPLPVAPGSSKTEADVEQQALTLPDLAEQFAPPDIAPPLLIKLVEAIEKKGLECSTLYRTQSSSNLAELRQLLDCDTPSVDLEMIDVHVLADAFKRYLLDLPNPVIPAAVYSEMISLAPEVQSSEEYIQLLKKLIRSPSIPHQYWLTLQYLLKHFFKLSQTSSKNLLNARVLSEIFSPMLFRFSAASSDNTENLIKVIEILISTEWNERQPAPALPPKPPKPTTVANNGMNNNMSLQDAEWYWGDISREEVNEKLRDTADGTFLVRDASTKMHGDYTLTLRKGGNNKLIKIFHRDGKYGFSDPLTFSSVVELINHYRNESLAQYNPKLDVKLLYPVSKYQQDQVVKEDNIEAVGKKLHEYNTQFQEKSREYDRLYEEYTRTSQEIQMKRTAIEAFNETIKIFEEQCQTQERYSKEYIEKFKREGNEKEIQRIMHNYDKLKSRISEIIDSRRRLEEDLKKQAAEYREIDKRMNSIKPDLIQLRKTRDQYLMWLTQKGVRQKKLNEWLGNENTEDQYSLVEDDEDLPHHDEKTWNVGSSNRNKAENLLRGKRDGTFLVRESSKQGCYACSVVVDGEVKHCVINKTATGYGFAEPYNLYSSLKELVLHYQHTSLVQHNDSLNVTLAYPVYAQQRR
PI3-kinase p110-alpha/p85-alpha, sequence (P42336 whole entry, canonical isoform): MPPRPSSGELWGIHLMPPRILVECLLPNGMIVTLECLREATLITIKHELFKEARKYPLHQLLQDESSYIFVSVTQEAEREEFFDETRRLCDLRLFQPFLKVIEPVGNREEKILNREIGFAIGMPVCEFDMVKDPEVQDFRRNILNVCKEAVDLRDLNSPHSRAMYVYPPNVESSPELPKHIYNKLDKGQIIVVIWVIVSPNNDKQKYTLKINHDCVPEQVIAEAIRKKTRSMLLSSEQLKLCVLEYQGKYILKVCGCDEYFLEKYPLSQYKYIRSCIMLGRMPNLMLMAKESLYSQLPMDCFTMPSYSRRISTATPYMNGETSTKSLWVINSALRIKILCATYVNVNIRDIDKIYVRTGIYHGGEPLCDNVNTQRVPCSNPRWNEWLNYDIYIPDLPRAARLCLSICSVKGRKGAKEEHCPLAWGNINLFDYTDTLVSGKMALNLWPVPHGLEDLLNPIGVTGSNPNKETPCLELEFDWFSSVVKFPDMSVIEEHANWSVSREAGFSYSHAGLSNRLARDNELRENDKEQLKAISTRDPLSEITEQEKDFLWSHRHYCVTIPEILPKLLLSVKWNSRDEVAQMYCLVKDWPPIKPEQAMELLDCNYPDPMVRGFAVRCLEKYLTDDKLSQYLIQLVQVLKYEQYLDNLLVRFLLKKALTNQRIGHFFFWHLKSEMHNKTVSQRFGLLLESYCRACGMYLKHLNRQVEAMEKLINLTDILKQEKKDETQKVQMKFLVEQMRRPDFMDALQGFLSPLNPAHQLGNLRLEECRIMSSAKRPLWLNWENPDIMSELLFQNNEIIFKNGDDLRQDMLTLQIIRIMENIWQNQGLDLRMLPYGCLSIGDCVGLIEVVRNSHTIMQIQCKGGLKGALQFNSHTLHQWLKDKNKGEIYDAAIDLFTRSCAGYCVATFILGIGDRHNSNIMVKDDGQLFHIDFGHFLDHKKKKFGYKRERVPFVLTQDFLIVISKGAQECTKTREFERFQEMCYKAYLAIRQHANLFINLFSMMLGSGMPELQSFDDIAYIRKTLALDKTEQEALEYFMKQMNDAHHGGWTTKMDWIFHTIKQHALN
PI3-kinase p110-delta/p85-alpha, sequence (P27986 whole entry, one chain of several): as the sequence (P27986 whole entry, canonical isoform) above
PI3K p110 beta/p85 alpha, sequence (P27986 whole entry): as the sequence (P27986 whole entry, canonical isoform) above
PI3K p110 beta/p85 alpha, sequence (P42338 whole entry): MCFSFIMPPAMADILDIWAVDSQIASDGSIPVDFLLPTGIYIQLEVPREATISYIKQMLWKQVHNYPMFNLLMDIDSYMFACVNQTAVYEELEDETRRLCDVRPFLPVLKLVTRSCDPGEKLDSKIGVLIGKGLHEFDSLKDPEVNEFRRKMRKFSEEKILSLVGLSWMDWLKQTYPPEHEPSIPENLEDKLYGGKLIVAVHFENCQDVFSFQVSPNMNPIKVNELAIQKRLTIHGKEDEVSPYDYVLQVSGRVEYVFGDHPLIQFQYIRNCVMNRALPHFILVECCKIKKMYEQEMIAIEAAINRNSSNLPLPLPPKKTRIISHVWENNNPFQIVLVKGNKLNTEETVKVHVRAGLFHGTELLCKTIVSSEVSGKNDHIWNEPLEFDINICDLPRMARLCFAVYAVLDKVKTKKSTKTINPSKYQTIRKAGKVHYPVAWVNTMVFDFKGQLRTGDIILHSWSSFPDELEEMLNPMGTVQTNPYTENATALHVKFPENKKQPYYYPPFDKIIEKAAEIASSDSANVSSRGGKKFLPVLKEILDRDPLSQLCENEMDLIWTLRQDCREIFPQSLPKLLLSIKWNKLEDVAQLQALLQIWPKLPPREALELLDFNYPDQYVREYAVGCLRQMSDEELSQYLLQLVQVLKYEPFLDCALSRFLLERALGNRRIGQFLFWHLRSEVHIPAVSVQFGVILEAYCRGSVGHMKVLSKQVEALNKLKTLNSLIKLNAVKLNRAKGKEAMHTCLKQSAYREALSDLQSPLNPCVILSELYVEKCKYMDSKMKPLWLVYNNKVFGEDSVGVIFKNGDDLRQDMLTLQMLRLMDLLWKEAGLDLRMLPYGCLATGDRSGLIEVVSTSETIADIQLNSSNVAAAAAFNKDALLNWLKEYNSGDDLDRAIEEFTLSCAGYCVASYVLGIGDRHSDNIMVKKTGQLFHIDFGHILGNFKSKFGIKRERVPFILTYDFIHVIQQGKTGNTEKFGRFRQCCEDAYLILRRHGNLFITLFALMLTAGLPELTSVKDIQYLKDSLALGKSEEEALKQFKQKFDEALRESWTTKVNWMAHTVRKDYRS

SMILES	Activity [1]	Activity [2]	other results
COc1cccc(OC)c1/C=C/C(=O)c1c(OC)cc(OC)c(C2CCN(C)CC2)c1O	4%	41%	
COc1ccccc1/C=C/C(=O)c1cc(OC)c(OC)cc1OC	55%	65%	
COc1cc(OC)c(C2CCN(C)CC2)c(O)c1C(=O)/C=C/c1c(Cl)cccc1Cl	6%	24%	
COc1cccc(OC)c1/C=C/C(=O)c1c(OC)cccc1OC	94%	96%	
COc1cc(OC)c(/C=C/C(=O)c2ccc(OC)c(OC)c2)c(OC)c1	91%	95%	
COc1cc(O)c(C(=O)/C=C/c2c(OC)cccc2OC)c(OC)c1	81%	85%	
COc1cc(OC)c(C(=O)/C=C/c2ccccc2OC)c(OC)c1	48%	65%	
COc1cc(OC)c(/C=C/C(=O)c2c(OC)cc(OC)c(C3CCN(C)CC3)c2O)c(OC)c1			Activity (Mus musculus [3]): Active; Activity (Mus musculus [4]): Dose-dependent effect; Activity (Mus musculus [5]): Non-Toxic; Activity (Mus musculus [6]): Dose-dependent effect; IC50 [7]: 10 µM; IC50 [8]: 7.2 µM; IC50 [9]: > 10 µM; inhibition [10]: Dose-dependent effect; Activity (Mus musculus [11]): Dose-dependent effect; inhibition [12]: Dose-dependent effect; Activity (Mus musculus [13]): inactive; Activity (Mus musculus [14]): inactive; Activity (Mus musculus [15]): Active; IC50 (PI3K p110 beta/p85 alpha): > 10 µM; Activity (Mus musculus [16]): inactive; Activity (Mus musculus [17]): inactive; Activity (Mus musculus [18]): Active
O=C(O)c1cc(=O)c2c(OCC(O)COc3cccc4oc(C(=O)O)cc(=O)c34)cccc2o1			Activity (Mus musculus [19]): inactive
COc1ccc(C(=O)/C=C/c2cc(OC)c(OC)c(OC)c2)c(O)c1	92%	93%	
COc1ccc(C(=O)/C=C/c2c(OC)cc(OC)cc2OC)c(O)c1	95%	91%	
COc1cc(OC)c(/C=C/C(=O)c2c(OC)cc(N)cc2OC)c(OC)c1	63%	75%	
CCC(=O)OCC(=O)[C@@]1(OC(=O)CC)[C@@H](C)C[C@H]2[C@@H]3CCC4=CC(=O)C=C[C@]4(C)[C@@]3(F)[C@@H](O)C[C@@]21C			Activity (Mus musculus [20]): Active
COc1cc(OC)c(/C=C/C(=O)c2c(OC)cc(OC)cc2OC)c(OC)c1	67%	68%	
COc1ccc(/C=C/C(=O)c2cc(OC)c(OC)cc2OC)cc1O	49%	62%	
COc1cc(OC)c(OC)cc1/C=C/C(=O)c1cc(OC)c(OC)cc1OC	66%	70%	
COc1cc(OC)c(/C=C/C(=O)c2c(OC)cccc2OC)c(OC)c1	78%	81%	
COc1cc(OC)c(C(=O)/C=C/c2ccc(OC)c(O)c2)c(OC)c1	40%	54%	
COc1cccc(/C=C/C(=O)c2c(OC)cccc2OC)c1	100%	82%	
COc1ccc(C(=O)/C=C/c2c(OC)cc(OC)cc2OC)c(OC)c1	76%	86%	
C[C@@H]1C[C@H]2[C@@H]3CCC4=CC(=O)C=C[C@]4(C)[C@@]3(F)[C@@H](O)C[C@]2(C)[C@@]1(O)C(=O)CO			Activity (Mus musculus [21]): Active; Activity (Mus musculus [22]): Active
COc1cccc(OC)c1C(=O)/C=C/c1ccc(C(F)(F)F)cc1	64%	81%	
COc1cc(OC)c(C(=O)/C=C/c2cc(OC)c(OC)cc2OC)c(OC)c1	53%	51%	
